Several values for one entry are separate records, joined by “and”; a condition that tells them apart may be missing. Equal entries are not always repeated. Where two headings read alike, the source gives them in different places. Marks after values point to notes of the source that are not given here.
What was measured:
[1] = tested on: IFNγ-induced NO production in RAW 264.7 cells; assay: Nitric oxide suppression assay (IFNγ-induced NO production, Griess nitrite readout); type: cell-based, mouse; conditions: for IC50: Mus musculus, RAW264.7, RAW 264.7 cells, read-out: NO IC50
[2] = tested on: AREc32 reporter cell line (luciferase reporter under eight copies of the rat GSTA2 ARE sequence); assay: AREc32 luciferase reporter activation; type: cell-based, human; conditions: for EC (2-fold): Homo sapiens, Arec32, concentration that increases the luminescence signal 2-fold above vehicle, 19 h treatment, read-out: AREc32 EC2X (Mean ± SD); for AREc32 Relative to CC in Same Experiment (Mean ± SD): comparison compound CC2, average of ratios from three replicate experiments
[3] = target: T1, CYP3A4 (Homo sapiens, UniProt P08684); assay: CYP3A4 (midazolam) inhibition in human liver microsomes; type: in vitro ADME; conditions: probe midazolam; human liver microsomes 0.1 mg/mL, midazolam substrate, 1 μM test compound, 37° C. 10 min
T1 construct: containing 0.1 mg/mL human liver microsomes; from tissue; host or cells: human liver microsomes
Method: Methods. Several compounds were evaluated for CYP3A4 (midazolam) inhibition in human liver microsomes at 1 μM. CYP3A4 inhibition was tested using an in vitro assay as generally described in Dierks et al. (Drug Metabolism Deposition, 29:23-29, 2001, which is incorporated by reference herein). Each sample, containing 0.1 mg/mL human liver microsomes, […] as substrate, and 1 μM of test compound, was incubated at 37° C. for 10 min. Following incubation, the metabolite 1-hydroxymidazolam was measured using HPLC-MS/MS. Peak areas corresponding to the metabolite of the substrate were recorded. The percent of control activity was then calculated by comparing the peak area obtained in the presence of the test compound to that obtained in the absence of the test compound. Subsequently, the percent inhibition was calculated by subtracting the percent control activity from 100 for each compound.

[4] = 2 h pretreatment, 20 ng/mL interferon gamma 24 h, average of trials per footnote

T1 sequence (P08684 whole entry): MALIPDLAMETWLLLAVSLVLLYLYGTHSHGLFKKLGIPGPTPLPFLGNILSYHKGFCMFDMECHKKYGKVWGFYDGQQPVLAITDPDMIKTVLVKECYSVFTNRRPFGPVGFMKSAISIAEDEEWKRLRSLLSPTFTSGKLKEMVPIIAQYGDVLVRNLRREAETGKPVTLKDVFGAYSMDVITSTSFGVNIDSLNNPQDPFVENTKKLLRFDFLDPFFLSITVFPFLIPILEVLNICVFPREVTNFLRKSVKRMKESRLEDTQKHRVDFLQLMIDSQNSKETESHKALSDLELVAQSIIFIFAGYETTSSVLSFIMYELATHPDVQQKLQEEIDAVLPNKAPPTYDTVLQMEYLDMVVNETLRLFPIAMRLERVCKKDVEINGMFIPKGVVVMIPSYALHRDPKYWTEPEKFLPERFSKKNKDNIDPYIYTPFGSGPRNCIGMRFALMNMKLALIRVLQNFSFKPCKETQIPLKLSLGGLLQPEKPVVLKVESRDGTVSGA

Structure (SMILES)	NO IC50 Rel. to RTA 402 [1]	times more active (NO IC50) than 63236 relative to RTA 402 [1]	times more active (NO IC50) than 63866 relative to RTA 402 [1]	IC50 [1, 4]	AREc32 EC2X Relative to RTA 402 (Mean ± SD) [2]	EC (2-fold) [2]	inhibition at 10 min, 1 µM [3]	AREc32 Relative to CC in Same Experiment (Mean ± SD) [2]	times more active (NO IC50) than CC2 relative to RTA 402 [1]	IC50 ([1]; interferon gamma)
CC1(C)CC[C@]2(CNC(=O)C3CC3)CC[C@]3(C)[C@H](C(=O)C=C4[C@@]5(C)C=C(C#N)C(=O)C(C)(C)[C@@H]5CC[C@]43C)[C@@H]2C1 [Compound T4]	0.26 fold and 0.26 ± 0.08^h fold	more than 220 times	roughly 4.5 times	0.51 nM	0.3 ± 0.08^b fold	0.0032 ± 0.00032 µM	30.7%	–	–	–
CC1(C)CC[C@]2(CN3CCC3=O)CC[C@]3(C)[C@H](C(=O)C=C4[C@@]5(C)C=C(C#N)C(=O)C(C)(C)[C@@H]5CC[C@]43C)[C@@H]2C1 [Compound T10]	0.45 ± 0.08^g fold	–	–	1.12 ± 0.44 nM	0.5 ± 0.13^c fold	0.0052 ± 0.00249 µM	33.2%	–	–	–
CC1(C)CC[C@]2(CN3CCCC3=O)CC[C@]3(C)[C@H](C(=O)C=C4[C@@]5(C)C=C(C#N)C(=O)C(C)(C)[C@@H]5CC[C@]43C)[C@@H]2C1 [Compound T11]	0.58 ± 0.18^f fold	–	–	1.08 ± 0.44 nM	0.5 ± 0.08^d fold	0.0067 ± 0.0017 µM	12.5%	–	–	–
CC1(C)CC[C@]2(Cn3ccnc3)CC[C@]3(C)[C@H](C(=O)C=C4[C@@]5(C)C=C(C#N)C(=O)C(C)(C)[C@@H]5CC[C@]43C)[C@@H]2C1 [Compound T17]	–	–	–	–	1.6 ± 0.22^g fold	0.0162 ± 0.00085 µM	31.8%	1.009 ± 0.052	–	–
CC1(C)CC[C@]2(Cn3cnnn3)CC[C@]3(C)[C@H](C(=O)C=C4[C@@]5(C)C=C(C#N)C(=O)C(C)(C)[C@@H]5CC[C@]43C)[C@@H]2C1 [Compound T18]	0.76 fold and 0.76 ± 0.10^e fold	–	–	0.92 nM	0.6 ± 0.05^g fold	0.0057 ± 0.00044 µM	46.5%	0.356 ± 0.015	more than twice as active	–
CC1(C)CC[C@]2(Cn3ccnn3)CC[C@]3(C)[C@H](C(=O)C=C4[C@@]5(C)C=C(C#N)C(=O)C(C)(C)[C@@H]5CC[C@]43C)[C@@H]2C1 [Compound T19]	0.93 fold and 0.93 ± 0.22^e fold	–	–	1.11 nM	–	0.0084 ± 0.00126 µM	33.8%	0.522 ± 0.052	roughly 1.6 times	1.11 nM
CC1(C)CC[C@]2(Cn3cccn3)CC[C@]3(C)[C@H](C(=O)C=C4[C@@]5(C)C=C(C#N)C(=O)C(C)(C)[C@@H]5CC[C@]43C)[C@@H]2C1 [Compound T20]	1.93 ± 0.41^e fold	–	–	3.28 ± 0.32 nM	–	0.0153 ± 0.00084 µM	13.2%	0.954 ± 0.101	–	–
CC1(C)CC[C@]2(Cn3cncn3)CC[C@]3(C)[C@H](C(=O)C=C4[C@@]5(C)C=C(C#N)C(=O)C(C)(C)[C@@H]5CC[C@]43C)[C@@H]2C1 [Compound T21]	0.57 ± 0.07^e fold	–	–	1.18 ± 0.21 nM	1.1 ± 0.20^g fold	0.0105 ± 0.00165 µM	18.9%	0.649 ± 0.070	–	–
